Test results as given in US6737383B1, “Herbicidal oxadiazolidines” (priority 1999, dated 2004).

Key:
pigweed = experiment: Test B pre/postemergence pigweed; type: in vivo, Amaranthus retroflexus; details: for Redroot pigweed plant response rating: scale of 0 to 10 where 0 is no effect and 10 is complete control
Method in brief: (§1)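 Herbicidal effect was estimated by eye on a ten-point control scale after plants spent twelve to sixteen days in a greenhouse following soil or foliar treatment. Foliar sprays targeted plants at one to four leaves; all doses were formulated in a non-phytotoxic solvent with surfactant.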

velvetleaf = experiment: Test B pre/postemergence velvetleaf; type: in vivo, Abutilon theophrasti; details: for Velvetleaf plant response rating: scale of 0 to 10 where 0 is no effect and 10 is complete control
Method in brief: as §1

rice = experiment: Test B flood test rice; type: in vivo, Oryza sativa
Method in brief: (§2)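 Each value is a visual injury score relative to controls, with 10 meaning complete control and 0 no effect. Evaluation took place twelve to sixteen days after the 2-leaf-stage plants were treated and kept in the greenhouse.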

blackgrass = experiment: Test B pre/postemergence blackgrass; type: in vivo, Alopecurus myosuroides
Method in brief: as §1

sugar beet = experiment: Test B pre/postemergence sugar beet; type: in vivo, Beta vulgaris; details: for Sugarbeets plant response rating: scale of 0 to 10 where 0 is no effect and 10 is complete control
Method in brief: as §1

bedstraw = experiment: Test B pre/postemergence bedstraw; type: in vivo, Galium aparine; details: Preemergence; for Bedstraw plant response rating: scale of 0 to 10 where 0 is no effect and 10 is complete control
Method in brief: as §1

duck salad = experiment: Test B flood test duck salad; type: in vivo, Heteranthera limosa
Method in brief: as §2

purple nutsedge = experiment: Test B pre/postemergence purple nutsedge; type: in vivo, Cyperus rotundus; details: for Nutsedge plant response rating: scale of 0 to 10 where 0 is no effect and 10 is complete control
Method in brief: as §1

cocklebur = experiment: Test B pre/postemergence cocklebur; type: in vivo, Xanthium strumarium; details: for Cocklebur plant response rating: scale of 0 to 10 where 0 is no effect and 10 is complete control
Method in brief: as §1

surinam grass = experiment: Test B pre/postemergence surinam grass; type: in vivo, Brachiaria decumbens
Method in brief: as §1

morningglory = experiment: Test B pre/postemergence morningglory; type: in vivo, Ipomoea hederacea; details: for Morningglory plant response rating: scale of 0 to 10 where 0 is no effect and 10 is complete control
Method in brief: as §1

bamyardgrass = experiment: Test B flood test barnyardgrass; type: in vivo, Echinochloa crus-galli
Method in brief: as §2

corn = experiment: Test B pre/postemergence corn; type: in vivo, Zea mays; details: for Corn plant response rating: scale of 0 to 10 where 0 is no effect and 10 is complete control
Method in brief: as §1

rape = experiment: Test B pre/postemergence rape; type: in vivo, Brassica napus; details: for Rape plant response rating: scale of 0 to 10 where 0 is no effect and 10 is complete control
Method in brief: as §1

giant foxtail = experiment: Test B pre/postemergence giant foxtail; type: in vivo, Setaria faberii; details: for Giant foxtail plant response rating: scale of 0 to 10 where 0 is no effect and 10 is complete control
Method in brief: as §1

[1] = Postemergence, Rate 125 g/ha, scale 0 to 10, 0 is no effect, 10 is complete control
[2] = Preemergence, Rate 62 g/ha, scale 0 to 10 (0 no effect, 10 complete control)
[3] = Rate 500 g/ha, Postemergence, scale 0 to 10, 0 no effect, 10 complete control
[4] = Postemergence (flood test), Rate 125 g/ha, scale 0 to 10, 0 is no effect, 10 is complete control
[5] = Rate 62 g/ha, Postemergence (flood test species), scale of 0 to 10 where 0 is no effect and 10 is complete control
[6] = Rate 62 g/ha, flood test species, Pre-emergence, visual evaluation after twelve to sixteen days
[7] = Rate 125 g/ha, Pre-emergence, flood test species, scale 0 to 10 where 0 is no effect and 10 is complete control
[8] = Rate 250 g/ha, Pre-emergence, flood-test species, scale 0 to 10, 0 is no effect, 10 is complete control
[9] = Rate 500 g/ha, listed under Postemergence (flood test species), scale 0 to 10, 0 no effect, 10 complete control
[10] = Rate 500 g/ha, Pre-emergence, flood test species, scale 0 to 10 (0 no effect, 10 complete control)
[11] = Preemergence, Rate 250 g/ha, scale of 0 to 10 where 0 is no effect and 10 is complete control
[12] = Preemergence, Rate 500 g/ha, scale of 0 to 10 where 0 is no effect and 10 is complete control
[13] = Rate 62 g/ha, Postemergence, scale of 0 to 10 where 0 is no effect and 10 is complete control
[14] = Rate 250 g/ha, Postemergence, scale of 0 to 10 where 0 is no effect and 10 is complete control

SMILES: CCC(CC)n1c(=O)on(C(=O)N(c2ccccc2)C(C)C)c1=O [Compound 354]
- Plant response rating, Redroot pigweed (pigweed; [1]): 3
- Plant response rating, Redroot pigweed (pigweed; [2]): 5
- Redroot pigweed plant response rating (0 to 10 scale) (pigweed; Preemergence, Rate 125 g/ha): 7
- Redroot pigweed plant response rating (pigweed; Preemergence, Rate 250 g/ha): 10
- Redroot pigweed plant response rating (pigweed; Preemergence, Rate 500 g/ha): 10
- Redroot pigweed plant response rating (pigweed; Rate 62 g/ha, Postemergence): 2
- Plant response rating, Redroot pigweed (pigweed; [3]): 7
- Plant response rating, Velvetleaf (velvetleaf; [1]): 0
- Plant response rating, Velvetleaf (velvetleaf; [2]): 1
- Velvetleaf plant response rating (0 to 10 scale) (velvetleaf; Preemergence, Rate 125 g/ha): 5
- Velvetleaf plant response rating (velvetleaf; Preemergence, Rate 250 g/ha): 6
- Velvetleaf plant response rating (velvetleaf; Preemergence, Rate 500 g/ha): 7
- Velvetleaf plant response rating (velvetleaf; Rate 62 g/ha, Postemergence): 0
- Plant response rating, Velvetleaf (velvetleaf; [3]): 2
- Plant response rating, Rice (rice; [4]): 0
- Rice plant response rating (rice; [5]): 0
- Plant response rating, Rice (0 to 10 scale, 0 is no effect, 10 is complete control) (rice; [6]): 0
- Rice plant response rating (rice; [7]): 0
- Rice plant response rating (rice; [8]): 0
- Plant response rating, Rice (rice; [9]): 2
- Rice plant response rating (rice; [10]): 0
- Plant response rating, Blackgrass (blackgrass; [1]): 5
- Plant response rating, Blackgrass (blackgrass; [2]): 3
- Blackgrass plant response rating (0 to 10 scale) (blackgrass; Preemergence, Rate 125 g/ha): 4
- Blackgrass plant response rating (blackgrass; [11]): 8
- Blackgrass plant response rating (blackgrass; [12]): 9
- Blackgrass plant response rating (blackgrass; [13]): 3
- Plant response rating, Blackgrass (blackgrass; [14]): 7
- Plant response rating, Blackgrass (blackgrass; [3]): 9
- Plant response rating, Sugarbeets (sugar beet; [1]): 1
- Plant response rating, Sugarbeets (sugar beet; [2]): 0
- Sugarbeets plant response rating (0 to 10 scale) (sugar beet; Preemergence, Rate 125 g/ha): 0
- Sugarbeets plant response rating (sugar beet; Preemergence, Rate 250 g/ha): 2
- Sugarbeets plant response rating (sugar beet; Preemergence, Rate 500 g/ha): 6
- Sugarbeets plant response rating (sugar beet; Rate 62 g/ha, Postemergence): 0
- Plant response rating, Sugarbeets (sugar beet; [3]): 3
- Plant response rating, Bedstraw (bedstraw; Rate 62 g/ha, scale 0 to 10 (0 no effect, 10 complete control)): 0
- Bedstraw plant response rating (0 to 10 scale) (bedstraw; Rate 125 g/ha): 0
- Bedstraw plant response rating (bedstraw; Rate 250 g/ha): 0
- Bedstraw plant response rating (bedstraw; Rate 500 g/ha): 0
- Plant response rating, Ducksalad (duck salad; [4]): 3
- Ducksalad plant response rating (duck salad; [5]): 0
- Plant response rating, Ducksalad (0 to 10 scale, 0 is no effect, 10 is complete control) (duck salad; [6]): 0
- Ducksalad plant response rating (duck salad; [7]): 0
- Ducksalad plant response rating (duck salad; [8]): 0
- Plant response rating, Ducksalad (duck salad; [9]): 5
- Ducksalad plant response rating (duck salad; [10]): 0
- Plant response rating, Nutsedge (purple nutsedge; [1]): 0
- Plant response rating, Nutsedge (purple nutsedge; [2]): 0
- Nutsedge plant response rating (0 to 10 scale) (purple nutsedge; Preemergence, Rate 125 g/ha): 0
- Nutsedge plant response rating (purple nutsedge; Preemergence, Rate 250 g/ha): 0
- Nutsedge plant response rating (purple nutsedge; Preemergence, Rate 500 g/ha): 0
- Nutsedge plant response rating (purple nutsedge; Rate 62 g/ha, Postemergence): 0
- Plant response rating, Nutsedge (purple nutsedge; [3]): 0
- Plant response rating, Cocklebur (cocklebur; [1]): 0
- Plant response rating, Cocklebur (cocklebur; [2]): 0
- Cocklebur plant response rating (0 to 10 scale) (cocklebur; Preemergence, Rate 125 g/ha): 0
- Cocklebur plant response rating (cocklebur; Preemergence, Rate 250 g/ha): 0
- Cocklebur plant response rating (cocklebur; Rate 62 g/ha, Postemergence): 0
- Plant response rating, Cocklebur (cocklebur; [3]): 1
- Plant response rating, B. signalgrass (surinam grass; [1]): 0
- Plant response rating, B. signalgrass (surinam grass; [2]): 1
- B. signalgrass plant response rating (0 to 10 scale, 0 is no effect, 10 is complete control) (surinam grass; Preemergence, Rate 125 g/ha): 5
- B. signalgrass plant response rating (surinam grass; [11]): 5
- B. signalgrass plant response rating (surinam grass; [12]): 5
- B. signalgrass plant response rating (surinam grass; [13]): 0
- Plant response rating, B. signalgrass (surinam grass; [14]): 0
- Plant response rating, B. signalgrass (surinam grass; [3]): 2
- Plant response rating, Morningglory (morningglory; [1]): 5
- Plant response rating, Morningglory (morningglory; [2]): 0
- Morningglory plant response rating (0 to 10 scale) (morningglory; Preemergence, Rate 125 g/ha): 0
- Morningglory plant response rating (morningglory; Preemergence, Rate 250 g/ha): 0
- Morningglory plant response rating (morningglory; Preemergence, Rate 500 g/ha): 0
- Morningglory plant response rating (morningglory; Rate 62 g/ha, Postemergence): 0
- Plant response rating, Morningglory (morningglory; [3]): 8
- Plant response rating, Barnyardgrass (bamyardgrass; [4]): 4
- Barnyardgrass plant response rating (bamyardgrass; [5]): 0
- Plant response rating, Barnyardgrass (0 to 10 scale, 0 is no effect, 10 is complete control) (bamyardgrass; [6]): 0
- Barnyardgrass plant response rating (bamyardgrass; [7]): 0
- Plant response rating, Barnyardgrass (bamyardgrass; Rate 250 g/ha, Postemergence (flood test species), scale of 0 to 10 where 0 is no effect and 10 is complete control): 7
- Barnyardgrass plant response rating (bamyardgrass; [8]): 0
- Plant response rating, Barnyardgrass (bamyardgrass; [9]): 9
- Barnyardgrass plant response rating (bamyardgrass; [10]): 0
- Plant response rating, Corn (corn; [1]): 0
- Plant response rating, Corn (corn; [2]): 0
- Corn plant response rating (0 to 10 scale) (corn; Preemergence, Rate 125 g/ha): 0
- Corn plant response rating (corn; Preemergence, Rate 250 g/ha): 3
- Corn plant response rating (corn; Preemergence, Rate 500 g/ha): 6
- Corn plant response rating (corn; Rate 62 g/ha, Postemergence): 0
- Plant response rating, Corn (corn; [3]): 0
- Plant response rating, Rape (rape; [1]): 0
- Plant response rating, Rape (rape; [2]): 0
- Rape plant response rating (0 to 10 scale) (rape; Preemergence, Rate 125 g/ha): 1
- Rape plant response rating (rape; Preemergence, Rate 250 g/ha): 5
- Rape plant response rating (rape; Preemergence, Rate 500 g/ha): 5
- Rape plant response rating (rape; Rate 62 g/ha, Postemergence): 0
- Plant response rating, Rape (rape; [3]): 4
- Plant response rating, Giant foxtail (giant foxtail; [1]): 4
- Plant response rating, Giant foxtail (giant foxtail; [2]): 10
- Giant foxtail plant response rating (0 to 10 scale) (giant foxtail; Preemergence, Rate 125 g/ha): 10
- Giant foxtail plant response rating (giant foxtail; Preemergence, Rate 250 g/ha): 10
- Giant foxtail plant response rating (giant foxtail; Preemergence, Rate 500 g/ha): 10
- Giant foxtail plant response rating (giant foxtail; Rate 62 g/ha, Postemergence): 0
- Plant response rating, Giant foxtail (giant foxtail; [3]): 9
